ChEMBL document CHEMBL1201861, “Genomics of Drug Sensitity in Cancer screening data, Wellcome Trust Sanger Institute”

Columns and labels:
Test in all cases: cells
COLO-824 = type: functional, cell-based, Homo sapiens; settings: Homo sapiens, COLO-824
Description: SANGER: Inhibition of human COLO-824 cell growth in a cell viability assay.

COR-L88 = type: functional, cell-based, Homo sapiens; settings: Homo sapiens, COR-L88;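 also: growth inhibition of COR-L88 cells, read out with a cell viability assay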
Description: SANGER: Inhibition of human COR-L88 cell growth in a cell viability assay.

CTV-1 = type: functional, cell-based, Homo sapiens; settings: Homo sapiens, CTV-1;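 also: growth inhibition of the cell line, read out with a cell viability assay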
Description: SANGER: Inhibition of human CTV-1 cell growth in a cell viability assay.

Calu-6 = type: functional, cell-based, Homo sapiens; settings: Homo sapiens, Calu-6;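 also: growth of human Calu-6 cells, read out by a cell viability assay, IC50 marking inhibition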
Description: SANGER: Inhibition of human Calu-6 cell growth in a cell viability assay.

D-247MG = type: functional, cell-based; settings: Homo sapiens
Description: SANGER: Inhibition of human D-247MG cell growth in a cell viability assay.

D283 Med = type: functional, cell-based, Homo sapiens; settings: Homo sapiens, D283 Med
Description: SANGER: Inhibition of human D-283MED cell growth in a cell viability assay.

D-502MG = type: functional, cell-based, Homo sapiens; settings: Homo sapiens, D-502MG
Description: SANGER: Inhibition of human D-502MG cell growth in a cell viability assay.

EKVX = type: functional, cell-based, Homo sapiens; settings: Homo sapiens, EKVX;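 also: growth inhibition of human EKVX cells, read out with a cell viability assay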
Description: SANGER: Inhibition of human EKVX cell growth in a cell viability assay.

ETK-1 = type: functional, cell-based, Homo sapiens; settings: Homo sapiens, ETK-1;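 also: growth inhibition of human ETK-1 cells, read out with a cell viability assay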
Description: SANGER: Inhibition of human ETK-1 cell growth in a cell viability assay.

EW-11 = type: functional, cell-based, Homo sapiens; settings: Homo sapiens, EW-11;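 also: growth inhibition of human EW-11 cells, measured with a cell viability assay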
Description: SANGER: Inhibition of human EW-11 cell growth in a cell viability assay.

EW-18 = type: functional, cell-based, Homo sapiens; settings: Homo sapiens, EW-18;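 also: growth inhibition of EW-18 cells, read out by a cell viability assay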
Description: SANGER: Inhibition of human EW-18 cell growth in a cell viability assay.

GR-ST = type: functional, cell-based, Homo sapiens; settings: Homo sapiens, GR-ST
Description: SANGER: Inhibition of human GR-ST cell growth in a cell viability assay.

HCE-T = type: functional, cell-based, Homo sapiens; settings: Homo sapiens, HCE-T;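 also: cell viability assay read-out, reporting inhibition of HCE-T cell growth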
Description: SANGER: Inhibition of human HCE-T cell growth in a cell viability assay.

IA-LM = type: functional, cell-based; settings: Homo sapiens;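 also: cell viability assay measuring growth inhibition of human IA-LM cells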
Description: SANGER: Inhibition of human IA-LM cell growth in a cell viability assay.

KARPAS-45 = type: functional, cell-based, Homo sapiens; settings: Homo sapiens, KARPAS-45;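 also: inhibition of cell line growth, read out through a viability assay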
Description: SANGER: Inhibition of human KARPAS-45 cell growth in a cell viability assay.

KM12 = type: functional, cell-based, Homo sapiens; settings: Homo sapiens, KM12;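 also: KM12 cell growth inhibition, read out with a cell viability assay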
Description: SANGER: Inhibition of human KM12 cell growth in a cell viability assay.

KNS-81-FD = type: functional, cell-based, Homo sapiens; settings: Homo sapiens, KNS-81-FD;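 also: growth inhibition of KNS-81-FD cells, read out with a cell viability assay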
Description: SANGER: Inhibition of human KNS-81-FD cell growth in a cell viability assay.

KY821 = type: functional, cell-based, Homo sapiens; settings: Homo sapiens, KY821;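 also: growth inhibition of human KY821 cells, read out by a cell viability assay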
Description: SANGER: Inhibition of human KY821 cell growth in a cell viability assay.

LB1047-RCC = type: functional, cell-based, Homo sapiens; settings: Homo sapiens, LB1047-RCC;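 also: inhibition of cell growth, determined with a cell viability assay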
Description: SANGER: Inhibition of human LB1047-RCC cell growth in a cell viability assay.

LB831-BLC = type: functional, cell-based, Homo sapiens; settings: Homo sapiens, LB831-BLC;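 also: growth inhibition of LB831-BLC cells, read out with a cell viability assay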
Description: SANGER: Inhibition of human LB831-BLC cell growth in a cell viability assay.

LS-1034 = type: functional, cell-based, Homo sapiens; settings: Homo sapiens, LS-1034
Description: SANGER: Inhibition of human LS-1034 cell growth in a cell viability assay.

LS-411N = type: functional, cell-based, Homo sapiens; settings: Homo sapiens, LS-411N
MFM-223 = type: functional, cell-based, Homo sapiens; settings: Homo sapiens, MFM-223
Description: SANGER: Inhibition of human MFM-223 cell growth in a cell viability assay.

MHH-PREB-1 = type: functional, cell-based, Homo sapiens; settings: Homo sapiens, MHH-PREB-1;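 also: cell viability assay measuring inhibition of proliferation of human MHH-PREB-1 cells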
Description: SANGER: Inhibition of human MHH-PREB-1 cell growth in a cell viability assay.

MLMA = type: functional, cell-based, Homo sapiens; settings: Homo sapiens, MLMA;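 also: growth inhibition of MLMA cells (human), determined through a cell viability readout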
Description: SANGER: Inhibition of human MLMA cell growth in a cell viability assay.

MPP-89 = type: functional, cell-based, Homo sapiens; settings: Homo sapiens, MPP-89;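 also: growth inhibition of human MPP-89 cells, read out with a cell viability assay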
Description: SANGER: Inhibition of human MPP-89 cell growth in a cell viability assay.

MS-1 = type: functional, cell-based, Homo sapiens; settings: Homo sapiens, MS-1;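 also: growth inhibition of MS-1 cells, read out by cell viability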
Description: SANGER: Inhibition of human MS-1 cell growth in a cell viability assay.

NCI-H1304 = type: functional, cell-based, Homo sapiens; settings: Homo sapiens, NCI-H1304;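 also: growth inhibition of the cancer cell line, measured in a cell viability assay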
Description: SANGER: Inhibition of human NCI-H1304 cell growth in a cell viability assay.

NCI-H1770 = type: functional, cell-based, Homo sapiens; settings: Homo sapiens, NCI-H1770;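 also: growth inhibition of NCI-H1770 cells determined with a viability readout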
Description: SANGER: Inhibition of human NCI-H1770 cell growth in a cell viability assay.

NCI-H446 = type: functional, cell-based, Homo sapiens; settings: Homo sapiens, NCI-H446;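 also: growth inhibition of NCI-H446 cells determined by a cell viability assay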
Description: SANGER: Inhibition of human NCI-H446 cell growth in a cell viability assay.

NCI-H526 = type: functional, cell-based, Homo sapiens; settings: Homo sapiens, NCI-H526;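 also: growth inhibition of the human NCI-H526 cell line, measured by a cell viability assay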
Description: SANGER: Inhibition of human NCI-H526 cell growth in a cell viability assay.

P30-OHK = type: functional, cell-based, Homo sapiens; settings: Homo sapiens, P30-OHK;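 also: growth inhibition of the P30-OHK cell line, read out with a cell viability assay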
Description: SANGER: Inhibition of human P30-OHK cell growth in a cell viability assay.

RXF 393 = type: functional, cell-based, Homo sapiens; settings: Homo sapiens, RXF 393;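 also: growth inhibition of human RXF 393 cells, read out with a cell viability assay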
Description: SANGER: Inhibition of human RXF393 cell growth in a cell viability assay.

SF-268 = type: functional, cell-based, Homo sapiens; settings: Homo sapiens, SF-268;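 also: growth inhibition of SF-268 cells determined with a cell viability assay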
Description: SANGER: Inhibition of human SF268 cell growth in a cell viability assay.

SK-N-DZ = type: functional, cell-based, Homo sapiens; settings: Homo sapiens, SK-N-DZ;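 also: growth inhibition of the cancer cell line, read out through a viability assay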
Description: SANGER: Inhibition of human SK-N-DZ cell growth in a cell viability assay.

SNB-75 = type: functional, cell-based, Homo sapiens; settings: Homo sapiens, SNB-75;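 also: cell viability assay measuring growth inhibition of human SNB-75 cells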
Description: SANGER: Inhibition of human SNB75 cell growth in a cell viability assay.

A101D = type: functional, cell-based, Homo sapiens; settings: Homo sapiens, A101D;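 also: growth inhibition of the cell line, measured with a viability assay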
Description: SANGER: Inhibition of human A101D cell growth in a cell viability assay.

A4-Fuk = type: functional, cell-based, Homo sapiens; settings: Homo sapiens, A4-Fuk;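 also: growth inhibition of A4-Fuk cells, read out by a cell viability assay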
Description: SANGER: Inhibition of human A4-Fuk cell growth in a cell viability assay.

ACN = type: functional, cell-based, Homo sapiens; settings: Homo sapiens, ACN;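 also: growth inhibition of the human ACN cell line, read out via cell viability testing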
Description: SANGER: Inhibition of human ACN cell growth in a cell viability assay.

AM-38 = type: functional, cell-based, Homo sapiens; settings: Homo sapiens, AM-38;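 also: growth inhibition of AM-38 cells of human origin, read out by a cell viability assay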
Description: SANGER: Inhibition of human AM-38 cell growth in a cell viability assay.

BB49-HNC = type: functional, cell-based, Homo sapiens; settings: Homo sapiens, BB49-HNC;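 also: cell viability assay read-out, reported as inhibition of BB49-HNC cell growth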
Description: SANGER: Inhibition of human BB49-HNC cell growth in a cell viability assay.

Becker = type: functional, cell-based, Homo sapiens; settings: Homo sapiens, Becker;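 also: growth inhibition of Becker cells, read out with a cell viability assay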
Description: SANGER: Inhibition of human Becker cell growth in a cell viability assay.

TE-5 = type: functional, cell-based, Homo sapiens; settings: Homo sapiens, TE-5;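 also: inhibition of cell growth, read out by a cell viability assay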
Description: SANGER: Inhibition of human TE-5 cell growth in a cell viability assay.

TE-6 = type: functional, cell-based, Homo sapiens; settings: Homo sapiens, TE-6;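 also: growth inhibition of TE-6 cells, read out with a cell viability assay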
Description: SANGER: Inhibition of human TE-6 cell growth in a cell viability assay.

TGBC1TKB = type: functional, cell-based, Homo sapiens; settings: Homo sapiens, TGBC1TKB;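 also: growth inhibition of TGBC1TKB cells, read out by a cell viability assay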
Description: SANGER: Inhibition of human TGBC1TKB cell growth in a cell viability assay.

VA-ES-BJ = type: functional, cell-based, Homo sapiens; settings: Homo sapiens, VA-ES-BJ;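 also: growth inhibition of the VA-ES-BJ cell line, read out by a cell viability assay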
Description: SANGER: Inhibition of human VA-ES-BJ cell growth in a cell viability assay.

COLO-668 = type: functional, cell-based, Homo sapiens; settings: Homo sapiens, COLO-668
Description: SANGER: Inhibition of human COLO-668 cell growth in a cell viability assay.

In the case of COc1ccc(N(C(=O)Oc2c(C)cccc2C)c2ccnc(Nc3ccc(N4CCN(C)CC4)cc3)n2)c(OC)c1, the IC50 (COLO-824) is reported as > 5120 nM, the IC50 (COR-L88) is reported as > 5120 nM and the IC50 (CTV-1) is reported as < 20 nM. For the same compound, the IC50 (Calu-6) was > 5120 nM, the IC50 (D-247MG) was > 5120 nM and the IC50 (D283 Med) was > 5120 nM. The IC50 (D-502MG) was > 5120 nM, the IC50 (EKVX) was > 5120 nM and the IC50 (ETK-1) was > 5120 nM. The IC50 (EW-11) was > 5120 nM, the IC50 (EW-18; read-out: IC50) was > 5120 nM and the IC50 (GR-ST) was > 5120 nM. For the same compound, the IC50 (HCE-T) was > 5120 nM, the IC50 (IA-LM) was > 5120 nM and the IC50 (KARPAS-45) was > 5120 nM. For the same compound, the IC50 (KM12) was > 5120 nM, the IC50 (KNS-81-FD) was > 5120 nM and the IC50 (KY821) was > 5120 nM. The IC50 (LB1047-RCC) was 75.9 nM, the IC50 (LB831-BLC) was 127 nM and the IC50 (LS-1034) was > 5120 nM. The IC50 (LS-411N) was > 5120 nM, the IC50 (MFM-223) was > 5120 nM and the IC50 (MHH-PREB-1) was > 5120 nM. For the same compound, the IC50 (MLMA) was 1920 nM, the IC50 (MPP-89) was 82.3 nM and the IC50 (MS-1) was > 5120 nM. The IC50 (NCI-H1304) was > 5120 nM, the IC50 (NCI-H1770) was > 5120 nM and the IC50 (NCI-H446) was > 5120 nM. The IC50 (NCI-H526) was > 5120 nM, the IC50 (P30-OHK) was > 5120 nM and the IC50 (RXF 393) was 106 nM. For the same compound, the IC50 (SF-268) was 2490 nM, the IC50 (SK-N-DZ; read-out: IC50) was > 5120 nM and the IC50 (SNB-75) was 358 nM. For the same compound, the IC50 (A101D) was > 5120 nM, the IC50 (A4-Fuk) was > 5120 nM and the IC50 (ACN) was 4230 nM. For the same compound, the IC50 (AM-38) was > 5120 nM, the IC50 (BB49-HNC) was > 5120 nM and the IC50 (Becker) was 63.8 nM. For the same compound, the IC50 (TE-5) was > 5120 nM, the IC50 (TE-6) was > 5120 nM and the IC50 (TGBC1TKB) was > 5120 nM. The IC50 (VA-ES-BJ) was 463 nM and the IC50 (COLO-668) was > 5120 nM.
Cc1ccc(NC(=O)c2ccc(CN3CCN(C)CC3)cc2)cc1Nc1nccc(-c2cccnc2)n1 [IMATINIB] was tested, and the IC50 (COLO-824) was > 2000 nM, the IC50 (COR-L88) was > 2000 nM and the IC50 (CTV-1) was > 2000 nM. The IC50 (Calu-6) was > 2000 nM, the IC50 (D-247MG) was > 2000 nM and the IC50 (D283 Med) was > 2000 nM. For the same compound, the IC50 (D-502MG) was > 2000 nM, the IC50 (EKVX) was > 2000 nM and the IC50 (ETK-1) was > 2000 nM. For the same compound, the IC50 (EW-11) was > 2000 nM, the IC50 (EW-18) was > 2000 nM and the IC50 (GR-ST) was > 2000 nM. For the same compound, the IC50 (HCE-T) was > 2000 nM, the IC50 (IA-LM) was > 2000 nM and the IC50 (KARPAS-45) was > 2000 nM. The IC50 (KM12) was > 2000 nM, the IC50 (KNS-81-FD) was > 2000 nM and the IC50 (KY821) was > 2000 nM. The IC50 (LB1047-RCC) was > 2000 nM, the IC50 (LB831-BLC) was > 2000 nM and the IC50 (LS-1034) was > 2000 nM. The IC50 (LS-411N) was > 2000 nM, the IC50 (MFM-223) was > 2000 nM and the IC50 (MHH-PREB-1) was > 2000 nM. The IC50 (MLMA) was > 2000 nM, the IC50 (MPP-89) was > 2000 nM and the IC50 (MS-1) was > 2000 nM. The IC50 (NCI-H1304) was > 2000 nM, the IC50 (NCI-H1770) was > 2000 nM and the IC50 (NCI-H446) was > 2000 nM. The IC50 (NCI-H526) was > 2000 nM, the IC50 (P30-OHK) was > 2000 nM and the IC50 (RXF 393) was > 2000 nM. For the same compound, the IC50 (SF-268) was > 2000 nM, the IC50 (SK-N-DZ) was > 2000 nM and the IC50 (SNB-75) was > 2000 nM. The IC50 (A101D) was > 2000 nM, the IC50 (A4-Fuk) was > 2000 nM and the IC50 (ACN) was > 2000 nM. For the same compound, the IC50 (AM-38) was > 2000 nM, the IC50 (BB49-HNC) was > 2000 nM and the IC50 (Becker) was > 2000 nM. The IC50 (TE-5) was > 2000 nM, the IC50 (TE-6) was > 2000 nM and the IC50 (TGBC1TKB) was > 2000 nM. For the same compound, the IC50 (VA-ES-BJ) was > 2000 nM and the IC50 (COLO-668) was > 2000 nM.
